# Where no end group is shown, it is not given here.
# Columns and labels:
# [1] = test system: liver macrophage infiltration; conditions: during dietary intervention; P<0.01; cited from earlier work
# MCP-1 and TNFα = MCP-1 and TNFα production in LPS-activated peritoneal macrophages (ELISA); assay type: cell-based, murine; conditions: equivalent dose of GW3965
# Experimental: Experiments were conducted to assess the in vitro anti-inflammatory effects of GW3965-containing NPs and their ability to regulate LXR target gene expression such as ABCA1 and SREBP-1c. LPS-activated peritoneal macrophages were treated with the indicated NPs containing equivalent doses of GW3965. The supernatant was collected for ELISA analysis of MCP-1 and TNFα. The cells were collected for RT-qPCR analysis of MCP-1 and TNFα mRNA as described below.
# In the next set of experiments, GW3965-containing NPs were evaluated to see if they are able to exert anti-inflammatory effects on macrophages. Isolated murine peritoneal macrophages were first treated with lipopolysaccharide (LPS) to induce the production of pro-inflammatory factors such as MCP-1 and TNFα. The activated macrophages were then treated with an equivalent dose of GW3965 in either solution or NP form. ELISA assay was performed on the culture supernatant to determine the production of MCP-1 and TNFα.
# [2] = test system: atherosclerotic lesion area; experiment: Atheroprotective effect in plaque-bearing LDLr−/− mice (lesion area, Oil Red O); assay type: in vivo; conditions: 8 mg/kg GW3965 daily i.v. for 14 days
# Experimental: To explore the atheroprotective effects of these NPs, plaque-bearing LDLr−/− mice were randomly divided into five groups and treated with the following regimens with equivalent doses of 8 mg/kg entrapped GW3965 via daily intravenous administration for 14 consecutive days: i) empty PLGA-b-PEG NP without GW3965 (control); ii) GW3965 in solution form; iii) CNP; iv) TNPLyP-1; and v) TNPCREKA. The aim of this study was to determine whether GW3965-containing NPs would result in inhibition of atherosclerosis development and whether peptide conjugation would improve the delivery efficacy of GW3965.
# [3] = test system: zymosan-stimulated PMN infiltration; experiment: In vivo murine zymosan-induced peritonitis; parameters: species or system C57BL/6J mice; conditions: 100 ng/mouse i.v.; exudates 4 h post zymosan
# Experimental: A model of self-limited peritonitis was used to quantitatively assess resolution in vivo to determine whether the developed NPs containing Ac2-26 are anti-inflammatory and/or pro-resolving (Bannenberg 2005; Schwab 2007). Zymosan A was administered to C57BL/6J mice. In parallel, mice were then given vehicle, empty NPs as control, Ac2-26 in NPs, Scrm Ac2-26 in NPs, Ac2-26 native peptides described in detail below. Equal polymer concentration was loaded in both the NPs and Ac2-26 NPs.
# 1 ml of zymosan A (100 μg/mouse) in 1 ml of sterile saline was administered to female C57BL/6J mice (6-8 wk old, Charles River Laboratories, Wilmington, Mass., USA) to induce peritonitis (Bannenberg et al. J Immunol 174(7):4345-4355 (2005); Norling, et al. (2011) J Immunol 186(10):5543-5547). […]
# For baseline PMN number measurements, mice were euthanized at selected time intervals (4, 12, or 24 hours post zymosan stimulation), with an overdose of isofluorane, following which peritoneal exudates were collected by lavaging with Ca^2+/Mg^2+ free phosphate buffered saline (PBS^−/−, 5 ml). Leukocytes were counted with a hemocytometer.
# Peritoneal exudates were harvested 4 h post zymosan initiation, and living cells were quantified using trypan blue exclusion.
# Differential cell counts were assessed via flow cytometry using an LSRII flow cytometer. […]
compound,measurement,setting,value
CC/C=C\C[C@H](O)/C=C/C=C\C=C\C=C\[C@@H](O)[C@@H](O)C/C=C\CCC(=O)O [RvD1],liver macrophage infiltration (change),[1],−15%
"O=C(O)Cc1cccc(OCCCN(Cc2cccc(C(F)(F)F)c2Cl)CC(c2ccccc2)c2ccccc2)c1 [GW3965, 3-(3-(2-chloro-3-trifluoromethylbenzyl-2,2diphenylethylamino)proproxy), phenylacetic acid]",production of MCP-1 and TNFα proteins,MCP-1 and TNFα,substantially suppressed
same,reduction in lesion area compared with controls,[2],pronounced reduction
"Ac2-26 peptide: annexin A1 N-terminal mimetic peptide that acts on the formyl peptide receptor ALX/FPR2 (Ac-AMVSEFLKQAWFIENEEQEYVQTVK; UniProt P04083 2-26, looked up, fragment)",blockade of zymosan-stimulated PMN infiltration,[3],approximately 30%

# Source: patent publication US10314917B2, “Targeted polymeric inflammation-resolving nanoparticles” (The Brigham and Women's Hospital, Inc., priority 2014, dated 2019)
